From patent US12286632B2, “Rationally-designed synthetic peptide shuttle agents for delivering polypeptide cargos from an extracellular space to the cytosol and/or nucleus of a target eukaryotic cell, uses thereof, methods and kits relating to same” (Feldan Bio Inc., priority 2016, dated 2025)
Ends that are not written are not given here.

How the values were obtained:
[1] = test system: HeLa cells; test: FITC-labeled anti-tubulin antibody transduction assay (flow cytometry, cell viability, microscopy); conditions: FITC-labeled anti-tubulin antibody 0.5 μM, HeLa, 1 hour; shuttle 3.5 μM
Experimental: The delivery and microscopy protocols are described in Example 3.
HeLa cells were cultured and tested in the protein transduction assay described in Example 3.1. […] The cells were subjected to flow cytometry analysis as described in Example 3.3.

[2] = test system: HeLa cells; test: Cytotoxic activity of NK92 against HeLa cells with GSK3 inhibitor; type: cell-based, Human; conditions: data not shown
[3] = test system: NKG2A genomic DNA sequence; test: T7E1 DNA cleavage assay / % INDELs after CRISPR/Cpf1-NLS delivery (NK and NK-92 cells); type: cell-based, Human; conditions: gene target NKG2A, CRISPR/Cpf1 1.33 μM, crRNA 2 μM, peptide 6 μM, 1 min in PBS, n=2
Source text: The T7 endonuclease I (T7E1) can be used to detect on-target CRISPR/Cas genome editing events in cultured cells. As an overview, genomic DNA from target cells is amplified by PCR. The PCR products are then denatured and reannealed to allow heteroduplex formation between wild-type DNA and CRISPR/Cas-mutated DNA. T7E1, which recognizes and cleaves mismatched DNA, is used to digest the heteroduplexes. The resulting cleaved and full-length PCR products are visualized by gel electrophoresis.
The T7E1 assay was performed with the Edit-R™ Synthetic crRNA Positive Controls (Dharmacon #U-007000-05) and the T7 Endonuclease I (NEB, Cat #M0302S). After the delivery of the CRISPR/Cas complex, cells were lysed in 100 μL of Phusion™ High-Fidelity DNA polymerase (NEB #M0530S) laboratory with additives. The cells were incubated for 15-30 minutes at 56° C., followed by deactivation for 5 minutes at 96° C. The plate was briefly centrifuged to collect the liquid at bottom of the wells. 50-μL PCR samples were set up for each sample to be analyzed. The PCR samples were heated to 95° C. for 10 minutes and then slowly (>15 minutes) cooled to room temperature. PCR product (-5 μL) was then separated on an agarose gel (2%) to confirm amplification. 15 μL of each reaction was incubated with T7E1 nuclease for 25 minutes at 37° C. […]

[4] = test system: T cells; type: cell-based, human
Experimental: Unless otherwise specified, T cells used herein were obtained from healthy human blood collected in heparinized tubes. T cells were isolated using a Ficoll™ technique (Ficoll-Paque™ GE or Lymphoprep™ Stem Cell Technologies). Briefly, blood was mixed with the Ficoll™ solution in conical tubes (50 mL) and centrifuged at 2280 rpm for 20 minutes. Mononuclear cells were harvested and transferred in another conical tube (50 mL) before washing with PBS and centrifugation at 1100 rpm for 10 minutes. Cells were resuspended in 5 mL of PBS containing 20% FBS. Cells were counted and then incubated in a culture medium composed by RPMI advanced (cat: 12633012 ThermoFisher), 10% FBS, 1% Penstrep (15140122 ThermoFisher), 1% L-glutamine (25030081 ThermoFisher) IL-2 30U/ml). Next, T cells were enriched with a Human T cell Enrichment Kit (StemCell #cat: 19051) by negative selection following the manufacturer instructions. The enriched T cells were validated using a specific anti-CD3 antibody (Biolegend #cat: 300438). At this step, collected cells were typically around 99% T cells. T cells were activated by adding IL-2 at 30 U/mL and the anti-CD28 antibody (ThermoFisher #cat: 16-0289-85) in complete medium for 5 days prior to experimentation. The activation of T cell expansion was then double-checked with both anti-CD25 and anti-CD137 antibodies. […]

[5] = in vitro; conditions: human, HeLa cells, Cell viability (%) (±St Dev.; n = 3)
[6] = in vitro; conditions: human, THP-1 cells
Experimental: One day before the transduction assay was performed, cells in exponential growth phase were harvested and plated in a 96-well plate (20,000 cells per well). The cells were incubated overnight in appropriate growth media containing FBS (see Example 1). The next day, in separate sterile 1.5 mL tubes, cargo protein at the indicated concentration was pre-mixed (pre-incubated) for 1 or 10 min (depending on the protocol) at 37° C. with the peptide(s) to be tested shuttle agents (0.5 to 5 μM) in 50 μL of fresh medium without serum (unless otherwise specified). The media in wells was removed and the cells were washed three times with freshly prepared phosphate buffered saline (PBS) previously warmed at 37° C. The cells were incubated with the cargo protein/shuttle agent mixture at 37° C. for the indicated time (e.g., 1, 5 or 60 min). After the incubation, the cells were quickly washed three times with freshly prepared PBS and/or heparin (0.5 mg/mL) previously warmed at 37° C. The washes with heparin were required for human THP-1 blood cells to avoid undesired cell membrane-bound protein background in subsequent analyses (microscopy and flow cytometry). The cells were finally incubated in 50 μL of fresh medium with serum at 37° C. before analysis.
One day before the transduction assay was performed, suspension cells in exponential growth phase were harvested and plated in a 96-well plate (20,000 cells per well). The cells were incubated overnight in appropriate growth media containing serum (see Example 1). The next day, in separate sterile 1.5-mL tubes, peptides were diluted in sterile distilled water at room temperature (if the cargo is or comprised a nucleic acid, nuclease-free water was used). Cargo protein(s) were then added to the peptides and, if necessary, sterile PBS or cell culture medium (serum-free) was added to obtain the desired concentrations of shuttle agent and cargo in a sufficient final volume to resuspend the cells (e.g., 10 to 100 μL per well in a 96-well plate). The shuttle agent/peptide was then immediately used for experiments. At least three controls were included for each experiment, including: (1) peptide alone (e.g., at highest concentration tested); (2) cargo alone; and (3) without any cargo or shuttle agent. The cells were centrifuged for 2 minutes at 400g, the medium was then removed and the cells were resuspended in PBS previously warmed at 37° C. The cells were centrifuged again 2 minutes at 400g, the PBS removed, and the cells were resuspended with the cargo protein/peptide mixture at 37° C. for the desired length of time. After that, 200 μL of complete medium was added directly on the cells. Cells were centrifuged for 2 minutes at 400g and the medium was removed. The pellet was resuspended and washed in 200 μL of PBS previously warmed at 37° C. After another centrifugation, the PBS was removed and the cells were resuspended in 50 μL of trypsin-EDTA solution for 2 min. 200 of complete medium was directly added and cells were centrifuged for 2 minutes at 400g. The medium was removed and the cells were resuspended in 200 μL of complete medium.
The cells incubated in 50 μL of fresh medium were directly observed by microscopy (Bright-field and fluorescence) at different power fields (4× to 40×). The cells were observed using a CoolSNAP-PRO™ camera (Series A02D874021) and images were acquired using the Image-Proplus™ software.
The fluorescence of GFP was quantified using flow cytometry (Accuri C6, Becton, Dickinson and Company (BD)).

[7] = in vitro; conditions: human, HeLa cells
[8] = Plasmid DNA (pEGFP-C1) transfection by peptides (% cells with GFP signal, cell viability); conditions: human, HeLa cells
[9] = in vitro
[10] = test system: HeLa cells; type: cell-based; conditions: peptide 5 μM; fold-increase relative to untreated calcein-loaded cells
Source text: Calcein is a membrane-impermeable fluorescent molecule that is readily internalized by cells when administered to the extracellular medium. Its fluorescence is […] and calcein self-quenches at higher concentrations. Once internalized, calcein becomes sequestered at high concentrations in cell endosomes and can be visualized by fluorescence microscopy as a punctate pattern. Following endosomal leakage, calcein is released to the cell cytoplasm and this release can be visualized by fluorescence microscopy as a diffuse pattern.
The cells were allowed to attach by incubating overnight in appropriate growth media, as described in Example 1. The next day, the media in wells was removed and replaced with 50 μL of fresh media without serum containing 62.5 μg/mL (100 μM) of calcein, except for HEK293A (250 μg/mL, 400 μM). […]
Untreated calcein-loaded cells were used as a control to distinguish cells having a baseline of fluorescence due to endosomally-trapped calcein from cells having increased fluorescence due to release of calcein from endosomes. Fluorescence signal means (“mean counts”) were analyzed for endosomal escape quantification. In some cases, the “Mean Factor” was calculated, which corresponds to the fold-increase of the mean counts relative to control (untreated calcein-loaded cells). […] The cellular mortality was monitored with the percentage of cells in the total events scanned. […]

[11] = test system: HeLa cells; type: cell-based, Human; conditions: GFP 5 μM; 5 μM of each peptide; 1 hour; data not shown
[12] = test system: HeLa cells; test: GFP-NLS protein transduction assay (flow cytometry: Pos cells %, viability %, relative fluorescence intensity; microscopy); conditions: Table 10.3b; Protocol B; HeLa; shuttle 50 μM; GFP-NLS 5 μM; 10 seconds

CC[C@H](C)[C@H](NC(=O)[C@H](CCCCN)NC(=O)[C@H](CCCCN)NC(=O)[C@H](Cc1ccccc1)NC(=O)[C@H](CC(C)C)NC(=O)[C@H](CCCCN)NC(=O)[C@H](Cc1c[nH]c2ccccc12)NC(=O)[C@@H](N)CCCCN)C(=O)NCC(=O)N[C@@H](C)C(=O)N[C@H](C(=O)N[C@@H](CC(C)C)C(=O)N[C@@H](CCCCN)C(=O)N[C@H](C(=O)N[C@@H](CC(C)C)C(=O)N[C@H](C(=O)N[C@H](C(=O)NCC(=O)N[C@@H](CCCNC(=N)N)C(=O)N[C@@H](CCC(N)=O)C(=O)N[C@H](C(=O)N[C@@H](CCCCN)C(=O)N[C@H](C(=O)N[C@@H](Cc1c[nH]c2ccccc12)C(=O)N[C@@H](Cc1ccccc1)C(=O)N[C@@H](CCC(N)=O)C(=O)N[C@@H](CC(N)=O)C(=O)N[C@@H](CCCNC(=N)N)C(=O)N[C@@H](CCCNC(=N)N)C(=O)N[C@@H](CCSC)C(=O)N[C@@H](CCCCN)C(=O)N[C@@H](Cc1c[nH]c2ccccc12)C(=O)N[C@@H](CCCCN)C(=O)N[C@@H](CCCCN)C(=O)N[C@@H](CS)C(=O)O)[C@@H](C)CC)[C@@H](C)CC)[C@@H](C)O)[C@@H](C)O)C(C)C)C(C)C [CM18-Penetratin-Cys]
FIG. 19B Cell viability (%) (± St. Dev.; n = 3) [1]: 73 ± 9.5%

Cn1cc(C2=C(c3ccc(Cl)cc3Cl)C(=O)NC2=O)c2ccccc21 [SB216763]
effect on cytotoxic activity of NK92 [2]: enhances the cytotoxic activity of NK92 against HeLa cells

FSD100 (HHHHHHFLKIWSRLIKIWTQGRRKGAQAAFRHHHHHH)
% INDELs [3]: 16%

FSD101 (HHHHHHRFAAQAGKRRGQTWIKILRSWIKLF)
% INDELs [3]: 17%

HHHHHHFLKIWSRLIKIWTQGRRKGAQAAFR [FSD21]
viability of transduced T cells (FSC/SSC, in words) [4]: viability of the transduced T cells was not substantially affected | viability [5]: 75.6 ± 5.99% | viability at 15 s, 5 µM [6]: 62.5 ± 5.16% | viability at 0.5 min, 2 µM [6]: 75.6 ± 6.38% | viability [7]: 96.2 ± 1.69%

HHHHHHVWKLFWTLLAAIYGRGKARQKRAKRQARG [Peptide F5D25]
viability [8]: 98.2 ± 1.19%

HHHHHHYARAAARQARA [Peptide 6His-PTD4]
viability [8]: 97.2 ± 1.34%

LLKLWSRLLKLWTQGGSGGGSGRRLKAKRAKA [FSD18]
viability of transduced T cells (FSC/SSC, in words) [4]: viability of the transduced T cells was not substantially affected | viability [5]: 82.4% | viability at 0.5 min, 2 µM [6]: 97.9 ± 1.73% | viability at 1 min, 1 µM [6]: 95.3 ± 3.11% | viability at 1 min, 2 µM [6]: 98.6 ± 0.37% | viability at 0.025 h, 1 µM [6]: 86.5 ± 6.27% | viability at 0.25 h, 5 µM ([9]; NK cells): 94.9 ± 1.63% | viability at 0.5 h, 2 µM ([9]; NK cells): 98.3 ± 1% | viability at 1.5 h, 1 µM ([9]; NK cells): 99.1 ± 0.08% | viability at 0.5 h, 2 µM ([9]; human, DOHH2 cells): 79.8 ± 6.18% | viability at 0.5 h, 10 µM ([9]; human, DOHH2 cells): 25 ± 2.66% | viability at 1.5 h, 1 µM ([9]; human, DOHH2 cells): 62.5 ± 6.17% | viability at 0.5 h, 2 µM ([9]; human, Jurkat cells): 97.4 ± 1.09% | viability at 0.5 h, 10 µM ([9]; human, Jurkat cells): 96.6 ± 2.46% | viability at 1.5 h, 1 µM ([9]; human, Jurkat cells): 98.6 ± 0.39% | viability at 0.5 h, 2 µM ([9]; human, KMS-12BM cells): 95.1 ± 3.56% | viability at 0.5 h, 10 µM ([9]; human, KMS-12BM cells): 92.7 ± 4.11% | viability at 1.5 h, 1 µM ([9]; human, KMS-12BM cells): 97.6 ± 1.05% | viability at 0.5 h, 2 µM ([9]; human, REC-1 cells): 99 ± 0.39% | viability at 0.5 h, 10 µM ([9]; human, REC-1 cells): 25 ± 3.17% | viability at 1.5 h, 1 µM ([9]; human, REC-1 cells): 96.2 ± 2.53% | viability at 0.5 h, 2 µM ([9]; mouse, HT2 cells): 80.7 ± 7.1% | viability at 0.5 h, 10 µM ([9]; mouse, HT2 cells): 63.9 ± 5.35% | viability at 1.5 h, 1 µM ([9]; mouse, HT2 cells): 88.3 ± 7.91%

RQIKIWFQNRRMKWKKC [Penetratin-Cys, reference compound]
Mean Factor [10]: 1.1 | GFP intracellular delivery (fluorescence microscopy) [11]: not successfully delivered intracellularly

YARAAARQARAWEAKLAKALAKALAKHLAKALAKALKACEA [PTD4-KALA]
viability [8]: 53.6 ± 3.91% | Cell viability (%) (±St. Dev.; n = 3) [12]: 91.4 ± 3.67%

YGRKKRRQRRRC [TAT-Cys, CPD single-domain peptide with C-terminal Cys, reference compound]
Mean Factor [10]: 1.3 | GFP intracellular delivery (fluorescence microscopy) [11]: not successfully delivered intracellularly
